Experimental data reported in ChEMBL document CHEMBL1201862, “PubChem BioAssay data set” (2004).
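Interpolation was linear, between the two tested concentrations surrounding the appropriate level; five concentrations were tested over 48 hours in 96-well plates. GI50 = concentration required for 50% inhibition of growth.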 Calls of active or inactive are those of the source. No stated cut-off is given here; in the data, active = GI50 up to about 1.1 µM and inactive = higher.

How the values were obtained:
Experiment in all cases: DTP human tumour cell line panel, 48 h
KM12 = test system: KM12
OVCAR-5 = test system: OVCAR-5
HCT-116 = test system: HCT-116
SNB-75 = test system: SNB-75
BT-549 = test system: BT-549
NCI-H23 = test system: NCI-H23
MDA-N = test system: MDA-N
UACC-257 = test system: UACC-257
A549 = test system: A549
M14 = test system: M14
UACC-62 = test system: UACC-62
T47D = test system: T47D
PC-3 = test system: PC-3
SK-MEL-2 = test system: SK-MEL-2
TK-10 = test system: TK-10
HOP-62 = test system: HOP-62
786-0 = test system: 786-0
HOP-92 = test system: HOP-92
COLO 205 = test system: COLO 205
SK-OV-3 = test system: SK-OV-3
SNB-19 = test system: SNB-19
SF-268 = test system: SF-268
Hs-578T = test system: Hs-578T
NCI-H226 = test system: NCI-H226
NCI-H460 = test system: NCI-H460
IGROV-1 = test system: IGROV-1
U-251 = test system: U-251
LOX IMVI = test system: LOX IMVI
HT-29 = test system: HT-29
SW-620 = test system: SW-620
DU-145 = test system: DU-145
RPMI-8226 = test system: RPMI-8226
K562 = test system: K562
MDA-MB-435 = test system: MDA-MB-435
SK-MEL-5 = test system: SK-MEL-5
HL-60 = test system: HL-60
UO-31 = test system: UO-31
MDA-MB-231 = test system: MDA-MB-231
OVCAR-8 = test system: OVCAR-8
SR = test system: SR
EKVX = test system: EKVX
ACHN = test system: ACHN
SN12C = test system: SN12C
MOLT-4 = test system: MOLT-4
SK-MEL-28 = test system: SK-MEL-28
HCT-15 = test system: HCT-15
MCF7 = test system: MCF7
A498 = test system: A498
SF-539 = test system: SF-539
NCI/ADR-RES = test system: NCI/ADR-RES
OVCAR-3 = test system: OVCAR-3
CCRF-CEM = test system: CCRF-CEM
SF-295 = test system: SF-295
CAKI-1 = test system: CAKI-1
NCI-H522 = test system: NCI-H522
HCC 2998 = test system: HCC 2998
Malme-3M = test system: Malme-3M
OVCAR-4 = test system: OVCAR-4

Measured: GI50

O=c1n(-c2ccccc2)c(=O)n2n1C1Cc3ccccc3C12 (stereo unspecified)
> 100 µM: HCT-15
inactive: KM12 > 100 µM | OVCAR-5 > 100 µM | HCT-116 > 100 µM | SNB-75 69.5 µM | BT-549 > 100 µM | NCI-H23 > 100 µM | MDA-N > 100 µM | UACC-257 > 100 µM | A549 > 100 µM | M14 > 100 µM | UACC-62 > 100 µM | T47D > 100 µM | PC-3 > 100 µM | SK-MEL-2 > 100 µM | TK-10 > 100 µM | HOP-62 > 100 µM | 786-0 > 100 µM | HOP-92 > 100 µM | COLO 205 > 100 µM | SK-OV-3 > 100 µM | SNB-19 > 100 µM | SF-268 > 100 µM | Hs-578T 15 µM | NCI-H226 > 100 µM | NCI-H460 > 100 µM | IGROV-1 > 100 µM | U-251 > 100 µM | LOX IMVI > 100 µM | HT-29 > 100 µM | SW-620 > 100 µM | DU-145 > 100 µM | RPMI-8226 > 100 µM | K562 > 100 µM | MDA-MB-435 > 100 µM | SK-MEL-5 > 100 µM | HL-60 > 100 µM | UO-31 > 100 µM | MDA-MB-231 > 100 µM | OVCAR-8 > 100 µM | SR > 100 µM | EKVX > 100 µM | ACHN > 100 µM | SN12C > 100 µM | MOLT-4 > 100 µM | SK-MEL-28 > 100 µM | MCF7 > 100 µM | A498 > 100 µM | SF-539 > 100 µM | NCI/ADR-RES > 100 µM | OVCAR-3 > 100 µM | CCRF-CEM > 100 µM | SF-295 > 100 µM | CAKI-1 > 100 µM

Cc1nn(-c2ccccc2)c2nc3ccc(Cl)cc3c(-c3ccccc3)c12
inactive: KM12 > 100 µM | OVCAR-5 > 100 µM | HCT-116 > 100 µM | SNB-75 > 100 µM | BT-549 > 100 µM | NCI-H23 > 100 µM | NCI-H522 > 100 µM | MDA-N > 100 µM | A549 > 100 µM | M14 > 100 µM | UACC-62 > 100 µM | T47D > 100 µM | PC-3 > 100 µM | SK-MEL-2 > 100 µM | TK-10 > 100 µM | HOP-62 > 100 µM | 786-0 > 100 µM | HOP-92 > 100 µM | COLO 205 > 100 µM | SK-OV-3 > 100 µM | HCC 2998 > 100 µM | SNB-19 > 100 µM | SF-268 > 100 µM | Hs-578T > 100 µM | NCI-H226 > 100 µM | NCI-H460 > 100 µM | IGROV-1 > 100 µM | U-251 > 100 µM | LOX IMVI > 100 µM | HT-29 > 100 µM | SW-620 > 100 µM | DU-145 > 100 µM | RPMI-8226 > 100 µM | MDA-MB-435 > 100 µM | Malme-3M > 100 µM | SK-MEL-5 > 100 µM | UO-31 > 100 µM | MDA-MB-231 > 100 µM | OVCAR-4 > 100 µM | OVCAR-8 > 100 µM | SR > 100 µM | EKVX > 100 µM | ACHN > 100 µM | SN12C > 100 µM | MOLT-4 > 100 µM | SK-MEL-28 > 100 µM | MCF7 > 100 µM | NCI/ADR-RES > 100 µM | OVCAR-3 > 100 µM | CCRF-CEM > 100 µM | SF-295 > 100 µM
> 100 µM: HCT-15
